Assay results as given in US6063778A, “Cephalosporin derivatives and processes for the preparation thereof” (Il-Dong Pharm. Co., Ltd., priority 1995, dated 2000).
≈ marks a conversion by molar mass, not a printed value. Where two headings read alike, the source gives them in different places.

Tests used:
[1] = Acute toxicity study; format: in vivo; settings: in vivo
Description: (§1) In order to illustrate usefulness of the compounds of the present invention, acute toxicity test of the compounds synthesized in the above Examples were carried out. Each dose of the compounds dissolved in saline and buffer solution (PH=7.0) was administered by intravenous or subcutaneous injection. Mortalities of the animals was recorded seven days latter.
(§2) .asterisk-pseud. Mouse: Male ICR strain, 4 weeks

[2] = system: Pseudomonas aeruginosa 1771; assay: MIC by agar dilution, in vitro activity test; format: cell-based; settings: 37° C., 18 to 20 hours, read-out: Minimal Inhibitory Concentration (MIC)
Description: These MIC values were determined by agar dilution method: that is, two-fold dilutions of each of the test compounds were made and dispersed in a Mueller-Hinton Broth medium.

[3] = system: Staphylococcus aureus, Escherichia coli and Pseudomonas aeruginosa; assay: MIC by agar dilution, comparison in words; format: cell-based; settings: against Staphylococcus aureus, vs Cefotaxime
Description: (§3) These MIC values were determined by agar dilution method: that is, two-fold dilutions of each of the test compounds were made and dispersed in a Mueller-Hinton Broth medium. Standard test strain which had the 10^6 CFU per ml was inoculated on the medium, and was incubated at 37° C. for 18 to 20 hours.

[4] = system: Staphylococcus aureus SG511; assay: MIC by agar dilution, in vitro activity test; format: cell-based; settings: 37° C., 18 to 20 hours, read-out: Minimal Inhibitory Concentration (MIC)
Description: as §3

[5] = system: Pseudomonas aeruginosa 9027; assay: MIC by agar dilution, in vitro activity test; format: cell-based; settings: 37° C., 18 to 20 hours, read-out: Minimal Inhibitory Concentration (MIC)
Description: as §3

[6] = system: Streptococcus pyogenes 77A; assay: MIC by agar dilution, in vitro activity test; format: cell-based; settings: 37° C., 18 to 20 hours, read-out: Minimal Inhibitory Concentration (MIC)
Description: as §3

[7] = system: Klebsiella aerogenes 1082E; assay: MIC by agar dilution, in vitro activity test; format: cell-based; settings: 37° C., 18 to 20 hours, read-out: Minimal Inhibitory Concentration (MIC)
Description: as §3

[8] = system: Pseudomonas aeruginosa 1771M; assay: MIC by agar dilution, in vitro activity test; format: cell-based; settings: 20 h, read-out: Minimal Inhibitory Concentration (MIC)
Description: as §3

[9] = system: Escherichia coli DC 2; assay: MIC by agar dilution, in vitro activity test; format: cell-based; settings: DC2, 37° C., 18 to 20 hours, read-out: Minimal Inhibitory Concentration (MIC)
Description: as §3

[10] = system: Escherichia coli DC 0; assay: MIC by agar dilution, in vitro activity test; format: cell-based; settings: DC0, 37° C., 18 to 20 hours, read-out: Minimal Inhibitory Concentration (MIC)
Description: as §3

[11] = system: Escherichia coli 078; assay: MIC by agar dilution, in vitro activity test; format: cell-based; settings: 37° C., 18 to 20 hours, read-out: Minimal Inhibitory Concentration (MIC)
Description: as §3

[12] = system: Escherichia coli 1507E; assay: MIC by agar dilution, in vitro activity test; format: cell-based; settings: Escherichia coli 1507E; agar dilution, 37° C., 18 to 20 hours; read-out: Minimal Inhibitory Concentration (MIC)
Description: as §3

[13] = system: Pseudomonas aeruginosa 1592E; assay: MIC by agar dilution, in vitro activity test; format: cell-based; settings: 37° C., 18 to 20 hours, read-out: Minimal Inhibitory Concentration (MIC)
Description: as §3

[14] = system: Staphylococcus aureus 503; assay: MIC by agar dilution, in vitro activity test; format: cell-based; settings: 37° C., 18 to 20 hours, read-out: Minimal Inhibitory Concentration (MIC)
Description: as §3

[15] = system: Enterobacter cloace 1321E; assay: MIC by agar dilution, in vitro activity test; format: cell-based; settings: 37° C., 18 to 20 hours, read-out: Minimal Inhibitory Concentration (MIC)
Description: as §3

[16] = system: Klebsiella aerogenes 1522E; assay: MIC by agar dilution, in vitro activity test; format: cell-based; settings: Klebsiella aerogenes 1522E; agar dilution, 37° C., 18 to 20 hours; read-out: Minimal Inhibitory Concentration (MIC)
Description: as §3

[17] = system: Enterobacter cloace P99; assay: MIC by agar dilution, in vitro activity test; format: cell-based; settings: P99, 20 h, read-out: Minimal Inhibitory Concentration (MIC)
Description: as §3

[18] = system: Salmonella typhimurium; assay: MIC by agar dilution, in vitro activity test; format: cell-based; settings: Salmonella enterica, 37° C., 18 to 20 hours, read-out: Minimal Inhibitory Concentration (MIC)
Description: as §3

[19] = system: Staphylococcus aureus 285; assay: MIC by agar dilution, in vitro activity test; format: cell-based; settings: 37° C., 18 to 20 hours, read-out: Minimal Inhibitory Concentration (MIC)
Description: as §3

[20] = system: Streptococcus faecium MD 8b; assay: MIC by agar dilution, in vitro activity test; format: cell-based; settings: Enterococcus faecium, MD8B, read-out: Minimal Inhibitory Concentration (MIC)
Description: as §3

[21] = system: Escherichia coli TEM; assay: MIC by agar dilution, in vitro activity test; format: cell-based; settings: 20 h, read-out: Minimal Inhibitory Concentration (MIC)
Description: as §3

[22] = system: Mouse; assay: Acute toxicity study; format: in vivo; settings: 10080 min
Description: as §1, §2

[23] = system: Streptococcus pyogenes 71A; assay: MIC by agar dilution, in vitro activity test; format: cell-based; settings: 37° C., 18 to 20 hours, read-out: Minimal Inhibitory Concentration (MIC)
Description: as §3

[24] = system: Pseudomonas aeruginosa 9071; assay: MIC by agar dilution, in vitro activity test; format: cell-based; settings: 37° C., 18 to 20 hours, read-out: Minimal Inhibitory Concentration (MIC)
Description: as §3

[25] = mouse, iv, i.v, male ICR mouse, 4 weeks, mortality at seven days, read-out: LD50 i.v
[26] = mouse, iv, intravenous routes, read-out: acute toxicity in intravenous routes
[27] = mouse, sc, s.c, male ICR mouse, 4 weeks, mortality at seven days, read-out: LD50 s.c

Compound: CO/N=C(\C(=O)N[C@@H]1C(=O)N2C(C(=O)[O-])=C(/C=C/C[N+](C)(C)Cc3nc[nH]c3C)CS[C@H]12)c1csc(N)n1 [Example 2, 7β-[(Z)-2-(2-aminothiazol-4-yl)-2-methoxyiminoacetamido]-3-[(E)-3-[(5-methylimidazol-4-yl)-methyldimethylammonio]-1-propen-1-yl]3-cephem-4-carboxylate]
- LD50 at 168 h [1, 25]: > 2000 mg/kg
- LD50 at 168 h [1, 26]: > 2000 mg/kg
- LD50 at 168 h [1, 27]: > 3000 mg/kg

Compound: CO/N=C(\C(=O)N[C@@H]1C(=O)N2C(C(=O)[O-])=C(/C=C/C[N+](C)(C)Cc3scnc3C)CS[C@H]12)c1csc(N)n1 [Example 1, 7β-[(Z)-2-(2-aminothiazol-4-yl)-2-methoxyiminoacetamido]-3-[(E)-3-[(4-methylthiazol-5-yl)-methyldimethylammonio]-1-propen-1-yl]3-cephem-4-carboxylate]
- MIC [2]: 6.3 µg/mL (≈ 10.9 µM)
- MICs compared with Cefotaxime [3]: superior to that of Cefotaxime
- MIC [4]: 0.4 µg/mL (≈ 0.692 µM)
- MIC [5]: 12.5 µg/mL (≈ 21.6 µM)
- MIC [6]: 0.006 µg/mL (≈ 0.0104 µM)
- MIC [7]: 6.3 µg/mL (≈ 10.9 µM)
- MIC [8]: 0.4 µg/mL (≈ 0.692 µM)
- MIC [9]: 0.05 µg/mL (≈ 0.0865 µM)
- MIC [10]: 0.025 µg/mL (≈ 0.0433 µM)
- MIC [11]: < 0.006 µg/mL
- MIC [12]: 0.025 µg/mL (≈ 0.0433 µM)
- MIC [13]: 3.1 µg/mL (≈ 5.37 µM)
- MIC [14]: 0.8 µg/mL (≈ 1.38 µM)
- MIC [15]: 0.012 µg/mL (≈ 0.0208 µM)
- MIC [16]: 0.05 µg/mL (≈ 0.0865 µM)
- MIC [17]: 0.4 µg/mL (≈ 0.692 µM)
- MIC [18]: 0.1 µg/mL (≈ 0.173 µM)
- MIC [19]: 0.4 µg/mL (≈ 0.692 µM)
- MIC ([20]; Streptococcus faecium MD 8b, agar dilution, 37° C., 18 to 20 hours): 50 µg/mL (≈ 86.5 µM)
- MIC [21]: 0.05 µg/mL (≈ 0.0865 µM)
- LD50 at 168 h [1, 25]: > 3000 mg/kg
- LD50 at 168 h [1, 26]: > 2000 mg/kg
- LD50 at 168 h [1, 27]: > 4000 mg/kg
- LD50 at 168 h ([1]; mouse, sc, subcutaneous routes, read-out: acute toxicity in subcutaneous routes): > 3000 mg/kg

Compound: CC[N+](C)(CC=CC(N)=O)C/C=C/C1=C(C(=O)[O-])N2C(=O)[C@@H](NC(=O)/C(=N\OCCF)c3csc(N)n3)[C@H]2SC1 (stereo partly drawn) [Example 12, 7β-[(Z)-2-(2-aminothiazol-4-yl)-2-fluoroethoxyiminoacetamdo]-3-[(E)-3-[(1-carbamoyl-1-propen-3-yl)-3-ethylmethylammonio]-1-propen-1-yl]3-cephem-4-carboxylate]
- MIC [2]: 6.3 µg/mL (≈ 10.6 µM)
- MICs compared with Cefotaxime [3]: superior to that of Cefotaxime
- MIC [4]: 0.8 µg/mL (≈ 1.34 µM)
- MIC [5]: 12.5 µg/mL (≈ 21 µM)
- MIC [6]: 0.025 µg/mL (≈ 0.042 µM)
- MIC [7]: 3.1 µg/mL (≈ 5.2 µM)
- MIC [8]: 0.8 µg/mL (≈ 1.34 µM)
- MIC [9]: 0.05 µg/mL (≈ 0.0839 µM)
- MIC [10]: < 0.006 µg/mL
- MIC [11]: 0.025 µg/mL (≈ 0.042 µM)
- MIC [12]: 0.05 µg/mL (≈ 0.0839 µM)
- MIC [13]: 6.3 µg/mL (≈ 10.6 µM)
- MIC [14]: 0.8 µg/mL (≈ 1.34 µM)
- MIC [15]: 0.05 µg/mL (≈ 0.0839 µM)
- MIC [16]: 0.1 µg/mL (≈ 0.168 µM)
- MIC [17]: 1.6 µg/mL (≈ 2.69 µM)
- MIC [18]: 0.4 µg/mL (≈ 0.672 µM)
- MIC [19]: 0.8 µg/mL (≈ 1.34 µM)
- MIC ([20]; 20 h): > 100 µg/mL
- MIC [21]: 0.05 µg/mL (≈ 0.0839 µM)
- LD50 at 168 h ([1]; iv, i.v, male ICR mouse, 4 weeks, mortality at seven days, read-out: LD50 i.v): > 2000 mg/kg
- LD50 at 168 h ([1]; sc, s.c, male ICR mouse, 4 weeks, mortality at seven days, read-out: LD50 s.c): > 3000 mg/kg
- acute toxicity in intravenous routes ([22]; intravenous routes): > 2000 mg/kg
- acute toxicity in subcutaneous routes ([22]; subcutaneous routes): > 3000 mg/kg

Compound: CO/N=C(\C(=O)N[C@@H]1C(=O)N2C(C(=O)O)=C(COC(C)=O)CS[C@H]12)c1csc(N)n1 [CTX, Cefotaxime, reference compound]
- MIC [4]: 1.6 µg/mL (≈ 3.51 µM)
- MIC [5]: 25 µg/mL (≈ 54.9 µM)
- MIC [6]: 0.012 µg/mL (≈ 0.0263 µM)
- MIC [7]: 6.3 µg/mL (≈ 13.8 µM)
- MIC [8]: 0.4 µg/mL (≈ 0.878 µM)
- MIC [9]: 0.05 µg/mL (≈ 0.11 µM)
- MIC [23]: 0.012 µg/mL (≈ 0.0263 µM)
- MIC [10]: 0.012 µg/mL (≈ 0.0263 µM)
- MIC [24]: 25 µg/mL (≈ 54.9 µM)
- MIC [11]: 0.025 µg/mL (≈ 0.0549 µM)
- MIC [12]: 0.025 µg/mL (≈ 0.0549 µM)
- MIC [13]: 25 µg/mL (≈ 54.9 µM)
- MIC [14]: 3.1 µg/mL (≈ 6.81 µM)
- MIC [15]: 0.05 µg/mL (≈ 0.11 µM)
- MIC [16]: 0.1 µg/mL (≈ 0.22 µM)
- MIC [17]: > 100 µg/mL
- MIC [18]: 0.1 µg/mL (≈ 0.22 µM)
- MIC [19]: 1.6 µg/mL (≈ 3.51 µM)
- MIC ([20]; 20 h): > 100 µg/mL
- MIC [21]: 0.05 µg/mL (≈ 0.11 µM)
